Earlier results, collected in patent publication US11850218B2, “Nutraceutical compositions and methods for dietary alleviation of Polycystic Ovary Syndrome” (Provation Life LLC, priority 2022, dated 2023).

Experiments:
[1] = system: cellular sensitivity to insulin

Compound	cellular sensitivity to insulin / insulin resistance [1]	anti-androgenic effect (hyperandrogenism)	further results
COc1ccc2cc3[n+](cc2c1OC)CCc1cc2c(cc1-3)OCO2 [Berberine]	decrease insulin resistance		
COc1cc(/C=C/C(=O)CC(=O)/C=C/c2ccc(O)c(OC)c2)ccc1O [Curcumin]	increases cellular sensitivity to insulin		
[Mg+2] [Magnesium]		show anti-androgenic effects	production of lutenizing hormone (hyperandrogenism; supplementation): seems to have a positive effect
CC[C@H](C)C(=O)O[C@H]1C[C@@H](C)C=C2C=C[C@H](C)[C@H](CC[C@@H]3C[C@@H](O)CC(=O)O3)[C@H]21 [Monacolin K]		provides an anti-androgenic effect	
[Zn] [Zinc]		show anti-androgenic effects	production of progesterone (hyperandrogenism; supplementation): increase production
O[C@H]1[C@H](O)[C@@H](O)[C@H](O)[C@@H](O)[C@H]1O [myo-inositol]	increase cellular sensitivity to insulin	significant anti-androgenic effect	menstruation / menstrual cyclicity (PCOS cases): restoration of normal menstruation
chromium (III) picolinate	positive effect upon cellular sensitivity to insulin	produces an anti-androgenic effect	free testosterone levels (hyperandrogenism; PCOS cases): lowering free testosterone levels
